{
  "source": "paper PMC7775894",
  "about": "(Bioorganic chemistry, 2020)",
  "key": {"M. tb KZN494/MDR": {"system": "M. tb KZN494/MDR", "assay": "microbe, parasite or virus in culture", "format": "cell-based", "settings": "Mycobacterium tuberculosis, read-out: M. tb MIC KZN494/MDR"}, "M. tb V2475/MDR": {"system": "M. tb V2475/MDR", "assay": "microbe, parasite or virus in culture", "format": "cell-based", "settings": "Mycobacterium tuberculosis, read-out: M. tb MIC V2475/MDR"}, "M. tb R506/XDR": {"system": "M. tb R506/XDR", "assay": "microbe, parasite or virus in culture", "format": "cell-based", "settings": "Mycobacterium tuberculosis, read-out: M. tb MIC R506/XDR"}, "M. tb TF274/XDR": {"system": "M. tb TF274/XDR", "assay": "microbe, parasite or virus in culture", "format": "cell-based", "settings": "Mycobacterium tuberculosis, read-out: M. tb MIC TF274/XDR"}, "M. tb H37Rv strain": {"system": "M. tb H37Rv strain", "settings": "cited from earlier work"}},
  "note": "Several values for one entry are separate records, joined by “and”; a condition that tells them apart may be missing. Equal values may be shown once. Read-outs that look alike come from different tables or passages of the source.",
  "data": [
    {"smiles": "COc1cccc2[nH]c(C(=O)NC34CC5CC(CC(C5)C3)C4)cc12", "note": "[8b, N-(1-Adamantyl)-4-methoxy-1H-indole-2-carboxamide]", "values": [
      {"measurement": "MIC", "setting": "M. tb KZN494/MDR", "result": 0.048, "unit": "µM"},
      {"measurement": "MIC", "setting": "M. tb V2475/MDR", "result": 0.096, "unit": "µM"},
      {"measurement": "MIC", "setting": "M. tb R506/XDR", "result": "0.024 to 0.048", "unit": "µM"},
      {"measurement": "MIC", "setting": "M. tb TF274/XDR", "result": "0.024 to 0.048", "unit": "µM"}
    ]},
    {"smiles": "COc1ccc2[nH]c(C(=O)NC34CC5CC(CC(C5)C3)C4)cc2c1", "note": "[8d, N-(1-Adamantyl)-5-methoxy-1H-indole-2-carboxamide]", "values": [
      {"measurement": "MIC", "setting": "M. tb KZN494/MDR", "result": 0.39, "unit": "µM"},
      {"measurement": "MIC", "setting": "M. tb V2475/MDR", "result": "0.39 to 0.77", "unit": "µM"},
      {"measurement": "MIC", "setting": "M. tb R506/XDR", "result": 0.39, "unit": "µM"},
      {"measurement": "MIC", "setting": "M. tb TF274/XDR", "result": 0.39, "unit": "µM"}
    ]},
    {"smiles": "Cc1ccc2[nH]c(C(=O)NC34CC5CC(CC(C5)C3)C4)cc2c1", "note": "[8f, N-(1-Adamantyl)-5-methyl-1H-indole-2-carboxamide]", "values": [
      {"measurement": "MIC", "setting": "M. tb KZN494/MDR", "result": 0.2, "unit": "µM"},
      {"measurement": "MIC", "setting": "M. tb V2475/MDR", "result": 0.2, "unit": "µM"},
      {"measurement": "MIC", "setting": "M. tb R506/XDR", "result": "0.1 to 0.2", "unit": "µM"},
      {"measurement": "MIC", "setting": "M. tb TF274/XDR", "result": "0.1 to 0.2", "unit": "µM"}
    ]},
    {"smiles": "O=C(NC12CC3CC(CC(O)(C3)C1)C2)c1cc2ccc(Br)cc2[nH]1", "note": "[8i, 6-bromo-N-(3-hydroxyadamantan-1-yl)-1H-indole-2-carboxamide]", "values": [
      {"measurement": "MIC", "setting": "M. tb KZN494/MDR", "result": "2.57 to 5.14", "unit": "µM"},
      {"measurement": "MIC", "setting": "M. tb V2475/MDR", "result": 5.14, "unit": "µM"},
      {"measurement": "MIC", "setting": "M. tb R506/XDR", "result": 2.57, "unit": "µM"},
      {"measurement": "MIC", "setting": "M. tb TF274/XDR", "result": 2.57, "unit": "µM"}
    ]},
    {"smiles": "O=C(NC12CC3CC(CC(O)(C3)C1)C2)c1cc2c(Cl)cc(Cl)cc2[nH]1", "note": "[8j, 4,6-dichloro-N-(3-hydroxyadamantan-1-yl)-1H-indole-2-carboxamide]", "values": [
      {"measurement": "MIC", "setting": "M. tb KZN494/MDR", "result": 1.32, "unit": "µM"},
      {"measurement": "MIC", "setting": "M. tb V2475/MDR", "result": 2.64, "unit": "µM"},
      {"measurement": "MIC", "setting": "M. tb R506/XDR", "result": 0.66, "unit": "µM"},
      {"measurement": "MIC", "setting": "M. tb TF274/XDR", "result": 0.66, "unit": "µM"}
    ]},
    {"smiles": "O=C(NC12CC3CC(CC(C3)C1)C2)c1cc2c(F)cc(F)cc2[nH]1", "note": "[8k, N-(1-Adamantyl)-4,6-difluoro-1H-indole-2-carboxamide]", "values": [
      {"measurement": "MIC", "setting": "M. tb KZN494/MDR", "result": 0.024, "unit": "µM"},
      {"measurement": "MIC", "setting": "M. tb V2475/MDR", "result": 0.024, "unit": "µM"},
      {"measurement": "MIC", "setting": "M. tb R506/XDR", "result": 0.012, "unit": "µM"},
      {"measurement": "MIC", "setting": "M. tb TF274/XDR", "result": 0.012, "unit": "µM"}
    ]},
    {"smiles": "O=C(NC12CC3CC(CC(O)(C3)C1)C2)c1cc2c(F)cc(F)cc2[nH]1", "note": "[8l, 4,6-difluoro-N-(3-hydroxyadamantan-1-yl)-1H-indole-2-carboxamide]", "values": [
      {"measurement": "MIC", "setting": "M. tb KZN494/MDR", "result": 2.89, "unit": "µM"},
      {"measurement": "MIC", "setting": "M. tb V2475/MDR", "result": 5.77, "unit": "µM"},
      {"measurement": "MIC", "setting": "M. tb R506/XDR", "result": 2.89, "unit": "µM"},
      {"measurement": "MIC", "setting": "M. tb TF274/XDR", "result": 1.44, "unit": "µM"}
    ]},
    {"smiles": "O=C(Nc1cc(Cl)cc(Cl)c1)NC12CC3CC(CC(C3)C1)C2", "note": "[10a, 1-(1-Adamantyl)-3-(3,5-dichlorophenyl)urea]", "values": [
      {"measurement": "MIC", "setting": "M. tb KZN494/MDR", "result": 1.47, "unit": "µM"},
      {"measurement": "MIC", "setting": "M. tb V2475/MDR", "result": "1.47 to 2.95", "unit": "µM"},
      {"measurement": "MIC", "setting": "M. tb R506/XDR", "result": 0.74, "unit": "µM"},
      {"measurement": "MIC", "setting": "M. tb TF274/XDR", "result": 0.74, "unit": "µM"}
    ]},
    {"smiles": "O=C(O)c1cn(C2CC2)c2cc(N3CCNCC3)c(F)cc2c1=O", "note": "[CPF, Ciprofloxacin, reference compound]", "values": [
      {"measurement": "MIC", "setting": "M. tb R506/XDR", "result": 6.04, "unit": "µM"},
      {"measurement": "MIC", "setting": "M. tb TF274/XDR", "result": 6.04, "unit": "µM"}
    ]},
    {"smiles": "CC[C@@H](CO)NCCN[C@@H](CC)CO", "note": "[EMB, ethambutol]", "values": [
      {"measurement": "MIC", "setting": "M. tb H37Rv strain; listed as ethambutol", "result": 4.89, "unit": "µM"},
      {"measurement": "MIC", "setting": "M. tb H37Rv strain; ref 22", "result": "4.89 [22] μM"}
    ]},
    {"smiles": "NNC(=O)c1ccncc1", "note": "[INH, isoniazid]", "values": [
      {"measurement": "MIC", "setting": "M. tb H37Rv strain; ref 22", "result": "0.29 μM and 0.29 [22] μM"}
    ]},
    {"smiles": "O=C(Nc1ccc(F)c(F)c1F)NC1C2CC3CC(C2)CC1C3", "note": "(centres unmarked) [compound 4]", "values": [
      {"measurement": "MIC", "setting": "M. tb H37Rv strain; ref 22", "result": "0.096 to 0.19", "unit": "µM"}
    ]}
  ]
}
